Measurements as given in ChEMBL document CHEMBL5154678, “Lysine Stapling Screening Provides Stable and Low Toxic Cationic Antimicrobial Peptides Combating Multidrug-Resistant Bacteria In Vitro and In Vivo” (J Med Chem, 2022).
≈ marks a conversion by molar mass, not a printed value. Starred links: 1 amine or outer side, 2 acyl side, 3 side chain; linkers in the order of their positions; H or OH if unused. Positions of bridges follow the written chain, without caps; N, C: chain ends. Non-standard residues stand in square brackets, D forms with d. Residues, ends and D or L forms follow the SMILES beside them. X1 = O=C([C@H](CCCCNCC=[*:3])N[*:1])[*:2]

Columns and labels:
[1] = test system: Pseudomonas aeruginosa; experiment: Antibacterial activity against Pseudomonas aeruginosa BNCC 125486 assessed as inhibition of bacterial growth incubated for 16 hrs by broth microdilution method; type: functional
[2] = test system: Erythrocyte; experiment: Hemolytic activity against human RBC assessed as concentration required to cause 10% hemolysis; type: toxicity, cell-based
[3] = test system: Escherichia coli; experiment: Antibacterial activity against Escherichia coli BNCC 133264 assessed as inhibition of bacterial growth incubated for 16 hrs by broth microdilution method; type: functional
[4] = test system: Listeria monocytogenes; experiment: Antibacterial activity against Listeria monocytogenes assessed as inhibition of bacterial growth incubated for 16 hrs by broth microdilution method; type: functional
[5] = test system: Staphylococcus aureus; experiment: Antibacterial activity against Staphylococcus aureus BNCC 186335 assessed as inhibition of bacterial growth incubated for 16 hrs by broth microdilution method; type: functional
[6] = test system: Staphylococcus aureus; experiment: Antibacterial activity against methicillin-resistant Staphylococcus aureus assessed as inhibition of bacterial growth incubated for 16 hrs by broth microdilution method; type: functional
[7] = test system: Escherichia coli; experiment: Antibacterial activity against cephalosporin-resistant Escherichia coli BNCC 133264 assessed as inhibition of bacterial growth incubated for 16 hrs by broth microdilution method; type: functional
[8] = test system: HEK-293T; experiment: Cytotoxicity against human HEK293T cells assessed as cell survival rate at 8 to 128 Ug/ml incubated for 24 hrs by MTT assay relative to control; type: toxicity, cell-based; settings: dose 8-128 µg/ml

CC[C@H](C)[C@H](NC(=O)[C@H](CCCCN)NC(=O)[C@H](CCCNC(=N)N)NC(=O)[C@@H](NC(=O)[C@H](CC(C)C)NC(=O)[C@H](CCCCN)NC(=O)[C@H](CC(C)C)NC(=O)[C@@H](NC(=O)[C@H](CCCCN)NC(=O)CNC(=O)[C@H](Cc1ccccc1)NC(=O)[C@@H](N)Cc1ccccc1)C(C)C)[C@@H](C)CC)C(=O)N[C@@H](Cc1ccccc1)C(N)=O (H-FFGKVLKLIRKIF-NH2)
MIC [1]: > 128 µg/mL | MHC [2]: 16 µg/mL | MIC [3]: > 128 µg/mL | MIC [4]: 8 µg/mL (≈ 4.97 µM) | MIC [5]: 64 µg/mL (≈ 39.8 µM) | MIC [6]: 64 µg/mL (≈ 39.8 µM)

CC[C@H](C)[C@H](NC(=O)[C@@H]1CCCCNC/C=C/CNCCCC[C@H](NC(=O)[C@H](CC(C)C)NC(=O)[C@@H](NC(=O)[C@H](CCCCN)NC(=O)CNC(=O)[C@H](Cc2ccccc2)NC(=O)[C@@H](N)Cc2ccccc2)C(C)C)C(=O)N[C@@H](CC(C)C)C(=O)N[C@@H]([C@@H](C)CC)C(=O)N[C@@H](CCCNC(=N)N)C(=O)N1)C(=O)N[C@@H](Cc1ccccc1)C(N)=O (H-FFGKVL[X1]LIR[X1]IF-NH2; staple (E) 7-11)
MIC [7]: 128 µg/mL (≈ 77.1 µM) | MIC [1]: > 128 µg/mL | Activity [8]: Toxic | MHC [2]: 16 µg/mL | MIC [3]: 128 µg/mL (≈ 77.1 µM) | MIC [4]: 8 µg/mL (≈ 4.82 µM) | MIC [5]: 16 µg/mL (≈ 9.64 µM) | MIC [6]: 32 µg/mL (≈ 19.3 µM)

CC[C@H](C)[C@H](NC(=O)[C@H](CCCCN)NC(=O)[C@@H]1CCCN1C(=O)[C@@H](NC(=O)[C@H](CC(C)C)NC(=O)[C@H](CCCCN)NC(=O)[C@H](CC(C)C)NC(=O)[C@@H](NC(=O)[C@H](CO)NC(=O)CNC(=O)[C@H](Cc1ccccc1)NC(=O)[C@@H](N)Cc1ccccc1)C(C)C)[C@@H](C)CC)C(=O)N[C@@H](CC(C)C)C(N)=O (H-FFGSVLKLIPKIL-NH2)
MIC [7]: 32 µg/mL (≈ 21.7 µM) | MIC [1]: > 128 µg/mL | MHC [2]: 64 µg/mL | MIC [3]: 64 µg/mL (≈ 43.4 µM) | MIC [4]: 2 µg/mL (≈ 1.36 µM) | MIC [5]: 2 µg/mL (≈ 1.36 µM) | MIC [6]: 2 µg/mL (≈ 1.36 µM)

CC[C@H](C)[C@H](NC(=O)[C@@H]1CCCCNC/C=C/CNCCCC[C@H](NC(=O)[C@H](CC(C)C)NC(=O)[C@@H](NC(=O)[C@H](CO)NC(=O)CNC(=O)[C@H](Cc2ccccc2)NC(=O)[C@@H](N)Cc2ccccc2)C(C)C)C(=O)N[C@@H](CC(C)C)C(=O)N[C@@H]([C@@H](C)CC)C(=O)N2CCC[C@H]2C(=O)N1)C(=O)N[C@@H](CC(C)C)C(N)=O (H-FFGSVL[X1]LIP[X1]IL-NH2; staple (E) 7-11)
MIC [7]: 128 µg/mL (≈ 83.9 µM) | MIC [1]: > 128 µg/mL | Activity [8]: Toxic | MHC [2]: 32 µg/mL | MIC [3]: 64 µg/mL (≈ 41.9 µM) | MIC [4]: 4 µg/mL (≈ 2.62 µM) | MIC [5]: 4 µg/mL (≈ 2.62 µM) | MIC [6]: 4 µg/mL (≈ 2.62 µM)

CC(C)C[C@@H]1NC(=O)[C@H](C)NC(=O)[C@@H](NC(=O)[C@H](C)NC(=O)[C@H](C)NC(=O)CNC(=O)[C@H](CCCCN)NC(=O)[C@H](CC(C)C)NC(=O)[C@H](CC(C)C)NC(=O)[C@H](CC(=O)O)NC(=O)[C@H](CCCCN)NC(=O)[C@H](Cc2ccccc2)NC(=O)CN)CCCCNC/C=C/CNCCCC[C@@H](C(=O)N[C@H](C(=O)N[C@H](C(=O)N[C@@H](CC(C)C)C(=O)N[C@@H](Cc2ccccc2)C(N)=O)C(C)C)[C@@H](C)O)NC(=O)[C@H](C(C)C)NC1=O (H-GFKDLLKGAA[X1]ALV[X1]TVLF-NH2; staple (E) 11-15)
MIC [7]: 16 µg/mL (≈ 7.73 µM) | MIC [1]: 128 µg/mL (≈ 61.8 µM) | Activity [8]: Toxic | MHC [2]: 32 µg/mL | MIC [3]: 8 µg/mL (≈ 3.86 µM) | MIC [4]: 4 µg/mL (≈ 1.93 µM) | MIC [5]: 2 µg/mL (≈ 0.966 µM) | MIC [6]: 8 µg/mL (≈ 3.86 µM)

CC(C)C[C@H](NC(=O)[C@H](C)NC(=O)[C@@H]1CCCCNC/C=C/CNCCCC[C@H](NC(=O)[C@H](CC(C)C)NC(=O)[C@H](CC(C)C)NC(=O)[C@H](CC(=O)O)NC(=O)[C@H](CCCCN)NC(=O)[C@H](Cc2ccccc2)NC(=O)CN)C(=O)NCC(=O)N[C@@H](C)C(=O)N[C@@H](C)C(=O)N1)C(=O)N[C@H](C(=O)N[C@@H](CCCCN)C(=O)N[C@H](C(=O)N[C@H](C(=O)N[C@@H](CC(C)C)C(=O)N[C@@H](Cc1ccccc1)C(N)=O)C(C)C)[C@@H](C)O)C(C)C (H-GFKDLL[X1]GAA[X1]ALVKTVLF-NH2; staple (E) 7-11)
MIC [7]: 32 µg/mL (≈ 15.5 µM) | MIC [1]: 32 µg/mL (≈ 15.5 µM) | MHC [2]: 32 µg/mL | MIC [3]: 16 µg/mL (≈ 7.73 µM) | MIC [4]: 8 µg/mL (≈ 3.86 µM) | MIC [5]: 2 µg/mL (≈ 0.966 µM) | MIC [6]: 8 µg/mL (≈ 3.86 µM)

CC(C)C[C@H](NC(=O)[C@H](C)NC(=O)[C@H](CCCCN)NC(=O)[C@H](C)NC(=O)[C@H](C)NC(=O)CNC(=O)[C@@H]1CCCCNC/C=C/CNCCCC[C@H](NC(=O)[C@H](Cc2ccccc2)NC(=O)CN)C(=O)N[C@@H](CC(=O)O)C(=O)N[C@@H](CC(C)C)C(=O)N[C@@H](CC(C)C)C(=O)N1)C(=O)N[C@H](C(=O)N[C@@H](CCCCN)C(=O)N[C@H](C(=O)N[C@H](C(=O)N[C@@H](CC(C)C)C(=O)N[C@@H](Cc1ccccc1)C(N)=O)C(C)C)[C@@H](C)O)C(C)C (H-GF[X1]DLL[X1]GAAKALVKTVLF-NH2; staple (E) 3-7)
MIC [7]: 32 µg/mL (≈ 15.5 µM) | MIC [1]: 128 µg/mL (≈ 61.8 µM) | Activity [8]: Toxic | MHC [2]: 32 µg/mL | MIC [3]: 16 µg/mL (≈ 7.73 µM) | MIC [4]: 16 µg/mL (≈ 7.73 µM) | MIC [5]: 4 µg/mL (≈ 1.93 µM) | MIC [6]: 16 µg/mL (≈ 7.73 µM)

CC[C@H](C)[C@H](NC(=O)[C@H](CCCCN)NC(=O)[C@H](CC(N)=O)NC(=O)[C@H](CC(C)C)NC(=O)[C@@H](NC(=O)[C@H](CCCCN)NC(=O)[C@@H]1CCCN1)[C@@H](C)CC)C(=O)N[C@@H](CC(C)C)C(=O)NCC(=O)N[C@@H](CCCCN)C(=O)N[C@H](C(=O)N[C@@H](CC(C)C)C(=O)N[C@@H](CCCNC(=N)N)C(=O)N[C@@H](CC(C)C)C(=O)N[C@@H](C)C(=O)N[C@@H](C)C(=O)N[C@@H](C)C(=O)N[C@@H](Cc1ccccc1)C(=O)N[C@@H](CCCCN)C(N)=O)[C@@H](C)CC (H-PKILNKILGKILRLAAAFK-NH2)
MIC [7]: 4 µg/mL (≈ 1.9 µM) | MIC [1]: 4 µg/mL (≈ 1.9 µM) | MHC [2]: 16 µg/mL | MIC [3]: 4 µg/mL (≈ 1.9 µM) | MIC [4]: 4 µg/mL (≈ 1.9 µM) | MIC [5]: 2 µg/mL (≈ 0.949 µM) | MIC [6]: 4 µg/mL (≈ 1.9 µM)

CC[C@H](C)[C@@H]1NC(=O)[C@@H](NC(=O)[C@H](CC(N)=O)NC(=O)[C@H](CC(C)C)NC(=O)[C@@H](NC(=O)[C@H](CCCCN)NC(=O)[C@@H]2CCCN2)[C@@H](C)CC)CCCCNC/C=C/CNCCCC[C@@H](C(=O)N[C@H](C(=O)N[C@@H](CC(C)C)C(=O)N[C@@H](CCCNC(=N)N)C(=O)N[C@@H](CC(C)C)C(=O)N[C@@H](C)C(=O)N[C@@H](C)C(=O)N[C@@H](C)C(=O)N[C@@H](Cc2ccccc2)C(=O)N[C@@H](CCCCN)C(N)=O)[C@@H](C)CC)NC(=O)CNC(=O)[C@H](CC(C)C)NC1=O (H-PKILN[X1]ILG[X1]ILRLAAAFK-NH2; staple (E) 6-10)
MIC [7]: 8 µg/mL (≈ 3.71 µM) | MIC [1]: 16 µg/mL (≈ 7.41 µM) | Activity [8]: Non-Toxic | MHC [2]: 16 µg/mL | MIC [3]: 4 µg/mL (≈ 1.85 µM) | MIC [4]: 2 µg/mL (≈ 0.926 µM) | MIC [5]: 2 µg/mL (≈ 0.926 µM) | MIC [6]: 4 µg/mL (≈ 1.85 µM)

CC[C@H](C)[C@H](NC(=O)[C@@H]1CCCCNC/C=C/CNCCCC[C@H](NC(=O)[C@@H]2CCCN2)C(=O)N[C@@H]([C@@H](C)CC)C(=O)N[C@@H](CC(C)C)C(=O)N[C@@H](CC(N)=O)C(=O)N1)C(=O)N[C@@H](CC(C)C)C(=O)NCC(=O)N[C@@H](CCCCN)C(=O)N[C@H](C(=O)N[C@@H](CC(C)C)C(=O)N[C@@H](CCCNC(=N)N)C(=O)N[C@@H](CC(C)C)C(=O)N[C@@H](C)C(=O)N[C@@H](C)C(=O)N[C@@H](C)C(=O)N[C@@H](Cc1ccccc1)C(=O)N[C@@H](CCCCN)C(N)=O)[C@@H](C)CC (H-P[X1]ILN[X1]ILGKILRLAAAFK-NH2; staple (E) 2-6)
MIC [7]: 16 µg/mL (≈ 7.41 µM) | MIC [1]: 128 µg/mL (≈ 59.3 µM) | Activity [8]: Toxic | MHC [2]: 16 µg/mL | MIC [3]: 16 µg/mL (≈ 7.41 µM) | MIC [4]: 4 µg/mL (≈ 1.85 µM) | MIC [5]: 4 µg/mL (≈ 1.85 µM) | MIC [6]: 4 µg/mL (≈ 1.85 µM)

CCN1CCN(C(=O)N[C@@H](C(=O)N[C@@H]2C(=O)N3C(C(=O)[O-])=C(CSc4nnnn4C)CS[C@H]23)c2ccc(O)cc2)C(=O)C1=O.[Na+] [CEFOPERAZONE SODIUM]
MIC [7]: > 128 µg/mL | MIC [1]: 4 µg/mL | MIC [3]: 0.125 µg/mL | MIC [4]: 8 µg/mL | MIC [5]: 0.5 µg/mL | MIC [6]: > 128 µg/mL

CN[C@H](CC(C)C)C(=O)N[C@H]1C(=O)N[C@@H](CC(N)=O)C(=O)N[C@H]2C(=O)N[C@H]3C(=O)N[C@H](C(=O)N[C@H](C(=O)O)c4cc(O)cc(O)c4-c4cc3ccc4O)[C@H](O)c3ccc(c(Cl)c3)Oc3cc2cc(c3O[C@@H]2O[C@H](CO)[C@@H](O)[C@H](O)[C@H]2O[C@H]2C[C@](C)(N)[C@H](O)[C@H](C)O2)Oc2ccc(cc2Cl)[C@H]1O [VANCOMYCIN]
MIC [7]: > 128 µg/mL | MIC [1]: > 128 µg/mL | MIC [3]: > 128 µg/mL
